Experiments:
HiBit-BRM fusion protein = target: T1, HiBit-BRM fusion protein (Homo sapiens, UniProt P51531); assay: HiBiT-BRM cell-based degradation assay (Nano-Glo HiBiT Lytic Detection, 24 h); settings: stable HeLa cell line expressing HiBiT-BRM; for DC50: read-out: BRM HiBit Degradation IC50
T1 construct: expressed in transfected cells
Procedure, shortened: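 Luminescence from LgBiT complementation after lysis measured HiBiT-BRM levels in stably expressing HeLa cells. Compounds were dosed at up to 30 μM final, in 3-fold 10-point dilutions, for 24 h. Percent degradation was scaled between DMSO wells and wells treated with 2 μM standard BRM/BRG1 degrader.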

[1] = target: T2, HiBit-BRG1 fusion protein (Homo sapiens, UniProt P51532); assay: HiBiT-BRG1 cell-based degradation assay (Nano-Glo HiBiT Lytic Detection, 24 h); settings: stable HeLa cell line expressing HiBit-BRG1 and LgBit; for Dmax: read-out: BRG1 HiBit Degradation Maximum (%); for DC50: read-out: BRMG1 HiBit Degradation IC50
T2 construct: expressed in transfected cells
Procedure, shortened: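 Degradation read by lytic NanoBiT luminescence after 24 h compound exposure of a stable HiBit-BRG1/LgBit HeLa line. Ten-point, 3-fold series in duplicate, top final dose 30 μM; DMSO and 2 μM standard degrader define 0% and 100% degradation.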

T2 sequence (P51532 whole entry, the tested form may be a part): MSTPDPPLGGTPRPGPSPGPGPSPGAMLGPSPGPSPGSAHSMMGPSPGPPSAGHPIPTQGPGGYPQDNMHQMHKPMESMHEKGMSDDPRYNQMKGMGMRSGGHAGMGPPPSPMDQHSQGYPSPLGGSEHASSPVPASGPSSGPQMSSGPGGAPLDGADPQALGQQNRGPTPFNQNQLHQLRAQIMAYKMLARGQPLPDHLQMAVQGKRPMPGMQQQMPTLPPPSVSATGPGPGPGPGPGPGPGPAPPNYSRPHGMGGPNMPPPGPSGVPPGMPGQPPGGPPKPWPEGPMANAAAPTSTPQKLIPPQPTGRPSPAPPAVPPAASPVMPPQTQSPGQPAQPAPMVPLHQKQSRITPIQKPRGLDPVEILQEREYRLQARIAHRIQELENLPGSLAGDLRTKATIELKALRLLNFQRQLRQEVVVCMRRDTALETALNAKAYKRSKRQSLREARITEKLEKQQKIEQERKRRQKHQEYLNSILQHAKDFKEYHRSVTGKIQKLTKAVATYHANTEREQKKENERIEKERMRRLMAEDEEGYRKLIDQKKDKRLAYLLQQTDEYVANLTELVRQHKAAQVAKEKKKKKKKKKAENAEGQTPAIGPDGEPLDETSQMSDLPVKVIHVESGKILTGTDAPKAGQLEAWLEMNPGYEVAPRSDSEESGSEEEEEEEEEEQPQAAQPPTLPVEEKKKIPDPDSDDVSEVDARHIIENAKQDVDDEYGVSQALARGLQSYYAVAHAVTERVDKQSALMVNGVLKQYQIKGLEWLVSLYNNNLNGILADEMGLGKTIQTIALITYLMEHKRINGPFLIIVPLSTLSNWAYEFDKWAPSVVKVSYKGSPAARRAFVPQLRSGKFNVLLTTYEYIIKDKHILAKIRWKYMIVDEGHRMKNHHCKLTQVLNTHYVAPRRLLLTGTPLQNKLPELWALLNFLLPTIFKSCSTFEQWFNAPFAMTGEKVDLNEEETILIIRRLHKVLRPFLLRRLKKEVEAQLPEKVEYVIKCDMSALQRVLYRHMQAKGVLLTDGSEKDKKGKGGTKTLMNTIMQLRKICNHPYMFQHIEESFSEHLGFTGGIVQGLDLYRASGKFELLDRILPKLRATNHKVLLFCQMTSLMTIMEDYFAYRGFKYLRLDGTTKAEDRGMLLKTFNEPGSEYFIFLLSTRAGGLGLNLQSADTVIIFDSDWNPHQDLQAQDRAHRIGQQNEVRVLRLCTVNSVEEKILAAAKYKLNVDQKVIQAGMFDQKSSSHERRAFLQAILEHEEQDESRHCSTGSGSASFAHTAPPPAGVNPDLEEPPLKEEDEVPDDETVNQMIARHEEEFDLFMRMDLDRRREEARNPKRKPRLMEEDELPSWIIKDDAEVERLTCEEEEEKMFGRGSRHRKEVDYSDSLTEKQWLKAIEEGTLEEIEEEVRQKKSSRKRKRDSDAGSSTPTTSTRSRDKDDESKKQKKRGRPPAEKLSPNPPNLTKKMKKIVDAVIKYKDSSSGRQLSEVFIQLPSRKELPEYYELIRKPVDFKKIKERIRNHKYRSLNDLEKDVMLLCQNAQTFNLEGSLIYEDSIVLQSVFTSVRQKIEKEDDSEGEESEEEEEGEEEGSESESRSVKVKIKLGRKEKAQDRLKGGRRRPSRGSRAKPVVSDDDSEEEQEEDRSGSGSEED
T1 sequence (P51531 whole entry, the tested form may be a part): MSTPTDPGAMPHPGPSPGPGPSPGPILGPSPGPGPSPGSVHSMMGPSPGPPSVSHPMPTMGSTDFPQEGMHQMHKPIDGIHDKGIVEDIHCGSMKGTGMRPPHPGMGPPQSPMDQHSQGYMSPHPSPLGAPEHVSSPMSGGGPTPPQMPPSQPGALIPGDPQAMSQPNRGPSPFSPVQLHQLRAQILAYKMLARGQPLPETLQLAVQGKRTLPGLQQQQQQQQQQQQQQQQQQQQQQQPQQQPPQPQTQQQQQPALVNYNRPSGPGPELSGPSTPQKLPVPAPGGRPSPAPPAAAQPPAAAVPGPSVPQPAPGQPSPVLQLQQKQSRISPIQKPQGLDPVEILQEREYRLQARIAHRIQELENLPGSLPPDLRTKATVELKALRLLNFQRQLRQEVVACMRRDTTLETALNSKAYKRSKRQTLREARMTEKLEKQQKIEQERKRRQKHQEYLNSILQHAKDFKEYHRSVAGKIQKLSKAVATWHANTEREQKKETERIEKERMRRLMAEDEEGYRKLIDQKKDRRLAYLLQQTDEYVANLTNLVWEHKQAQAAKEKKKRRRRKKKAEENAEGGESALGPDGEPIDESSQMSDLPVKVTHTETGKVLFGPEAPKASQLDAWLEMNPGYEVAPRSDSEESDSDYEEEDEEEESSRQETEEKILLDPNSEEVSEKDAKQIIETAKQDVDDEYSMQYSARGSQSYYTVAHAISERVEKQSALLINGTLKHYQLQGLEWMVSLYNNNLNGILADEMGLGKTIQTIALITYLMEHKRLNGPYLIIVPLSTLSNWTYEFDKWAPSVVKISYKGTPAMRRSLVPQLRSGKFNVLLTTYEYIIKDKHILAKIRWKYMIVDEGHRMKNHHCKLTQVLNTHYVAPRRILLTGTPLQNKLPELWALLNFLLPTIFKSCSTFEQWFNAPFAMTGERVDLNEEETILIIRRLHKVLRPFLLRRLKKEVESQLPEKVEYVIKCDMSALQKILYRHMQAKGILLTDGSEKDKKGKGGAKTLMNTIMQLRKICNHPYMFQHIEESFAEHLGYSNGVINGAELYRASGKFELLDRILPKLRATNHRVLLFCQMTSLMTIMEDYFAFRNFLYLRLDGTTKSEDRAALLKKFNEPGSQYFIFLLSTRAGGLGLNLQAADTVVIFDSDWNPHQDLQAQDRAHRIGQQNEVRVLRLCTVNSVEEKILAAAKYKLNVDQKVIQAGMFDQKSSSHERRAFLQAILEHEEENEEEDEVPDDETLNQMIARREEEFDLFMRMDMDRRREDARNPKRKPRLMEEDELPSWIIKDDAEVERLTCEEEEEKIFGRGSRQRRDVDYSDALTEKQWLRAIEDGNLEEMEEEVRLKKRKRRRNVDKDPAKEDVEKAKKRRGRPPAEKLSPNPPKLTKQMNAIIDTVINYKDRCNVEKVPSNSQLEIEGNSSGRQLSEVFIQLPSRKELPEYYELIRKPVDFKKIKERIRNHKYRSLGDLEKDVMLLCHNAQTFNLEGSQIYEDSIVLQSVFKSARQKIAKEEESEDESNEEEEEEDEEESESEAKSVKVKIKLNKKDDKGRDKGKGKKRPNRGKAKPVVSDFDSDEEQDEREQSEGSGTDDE

| SMILES | BRM HiBit Degradation Maximum (%) (HiBit-BRM fusion protein) | DC50 (HiBit-BRM fusion protein) [nM] | Dmax [1] [%] | DC50 [1] [nM] |
| --- | --- | --- | --- | --- |
| Cc1ncsc1-c1ccc([C@H](C)NC(=O)[C@@H]2C[C@@H](O)CN2C(=O)[C@@H](c2cc(N3CC4(C3)CN(c3cc5cc(-c6ccccc6O)nnc5s3)C4)no2)C(C)C)cc1 [Compound 68, (2S,4R)-4-hydroxy-1-((R)-2-(3-(6-(3-(2-hydroxyphenyl)thieno[2,3-c]pyridazin-6-yl)-2,6-diazaspiro[3.3]heptan-2-yl)isoxazol-5-yl)-3-methylbutanoyl)-N-((S)-1-(4-(4-methylthiazol-5-yl)phenyl)ethyl)pyrrolidine-2-carboxamide] | A (“A” indicates maximum degradation ≥75%) | < 10 | < 50 | – |
| Cc1ncsc1-c1ccc([C@H](C)NC(=O)[C@@H]2C[C@@H](O)CN2C(=O)[C@@H](c2cc(N3CCC4(CC[C@@H](c5sc6nnc(-c7ccccc7O)cc6c5C)C4)CC3)no2)C(C)C)cc1 [Compound 77, (2S,4R)-4-hydroxy-1-((R)-2-(3-((R)-2-(3-(2-hydroxyphenyl)-5-methylthieno[2,3-c]pyridazin-6-yl)-8-azaspiro[4.5]decan-8-yl)isoxazol-5-yl)-3-methylbutanoyl)-N-((S)-1-(4-(4-methylthiazol-5-yl)phenyl)ethyl)pyrrolidine-2-carboxamide] | A (“A” indicates maximum degradation ≥75%) | < 10 | > 50 | > 100 |
| Cc1ncsc1-c1ccc([C@H](C)NC(=O)[C@@H]2C[C@@H](O)CN2C(=O)[C@@H](c2cc(-c3ccnc(N4CC[C@H](c5cc6nnc(-c7ccccc7O)cc6s5)C4)n3)no2)C(C)C)cc1 [Compound 86, (2S,4R)-4-hydroxy-1-((R)-2-(3-(2-((S)-3-(3-(2-hydroxyphenyl)thieno[3,2-c]pyridazin-6-yl)pyrrolidin-1-yl)pyrimidin-4-yl)isoxazol-5-yl)-3-methylbutanoyl)-N-((S)-1-(4-(4-methylthiazol-5-yl)phenyl)ethyl)pyrrolidine-2-carboxamide] | A (“A” indicates maximum degradation ≥75%) | > 100 | < 50 | – |
| Cc1ncsc1-c1ccc([C@H](C)NC(=O)[C@@H]2C[C@@H](O)CN2C(=O)[C@@H](c2cc(-c3ncc(N4CCC(c5sc6nnc(-c7ccccc7O)cc6c5C)CC4)cn3)no2)C(C)C)cc1 [Compound 36, (2S,4R)-4-hydroxy-1-((R)-2-(3-(5-(4-(3-(2-hydroxyphenyl)-5-methylthieno[2,3-c]pyridazin-6-yl)piperidin-1-yl)pyrimidin-2-yl)isoxazol-5-yl)-3-methylbutanoyl)-N-((S)-1-(4-(4-methylthiazol-5-yl)phenyl)ethyl)pyrrolidine-2-carboxamide] | A (“A” indicates maximum degradation ≥75%) | > 10 | < 50 | > 1000 |
| Cc1ncsc1-c1ccc([C@H](C)NC(=O)[C@@H]2C[C@@H](O)CN2C(=O)[C@@H](c2cc(-c3ccnc(N4CC[C@@H](c5sc6nnc(-c7ccccc7O)cc6c5C)C4)n3)no2)C(C)C)cc1 [Compound 7, (2S,4R)-4-hydroxy-1-((R)-2-(3-(2-((R)-3-(3-(2-hydroxyphenyl)-5-methylthieno[2,3-c]pyridazin-6-yl)pyrrolidin-1-yl)pyrimidin-4-yl)isoxazol-5-yl)-3-methylbutanoyl)-N-((S)-1-(4-(4-methylthiazol-5-yl)phenyl)ethyl)pyrrolidine-2-carboxamide] | C (“C” indicates maximum degradation <50%) | > 1000 | < 50 | > 1000 |
| Cc1ncsc1-c1ccc([C@H](C)NC(=O)[C@@H]2C[C@@H](O)CN2C(=O)[C@@H](c2cc(C3CCN(c4cnc(N5CCC(c6sc7nnc(-c8ccccc8O)cc7c6C)CC5)nc4)CC3)no2)C(C)C)cc1 [Compound 100, (2S,4R)-4-hydroxy-1-[(2R)-2-{3-[1-(2-{4-[3-(2-hydroxyphenyl)-5-methylthieno[2,3-c]pyridazin-6-yl]piperidin-1-yl}pyrimidin-5-yl)piperidin-4-yl]-1,2-oxazol-5-yl}-3-methylbutanoyl]-N-[(1S)-1-[4-(4-methyl-1,3-thiazol-5-yl)phenyl]ethyl]pyrrolidine-2-carboxamide] | A (“A” indicates maximum degradation ≥75%) | < 10 | > 50 | > 10 |
| Cc1ncsc1-c1ccc([C@H](C)NC(=O)[C@@H]2C[C@@H](O)CN2C(=O)[C@@H](c2cc(N3CCC4(CC3)CC(c3cc5cc(-c6ccccc6O)nnc5s3)C4)no2)C(C)C)cc1 [Compound 98, (2S,4R)-4-hydroxy-1-((R)-2-(3-(2-(3-(2-hydroxyphenyl)thieno[2,3-c]pyridazin-6-yl)-7-azaspiro[3.5]nonan-7-yl)isoxazol-5-yl)-3-methylbutanoyl)-N-((S)-1-(4-(4-methylthiazol-5-yl)phenyl)ethyl)pyrrolidine-2-carboxamide] | A (“A” indicates maximum degradation ≥75%) | > 10 | > 75 | > 100 |
| Cc1ncsc1-c1ccc([C@H](C)NC(=O)[C@@H]2C[C@@H](O)CN2C(=O)[C@@H](c2cc(-c3ccnc(N4CCC(c5sc6nnc(-c7ccccc7O)cc6c5C)CC4)c3)no2)C(C)C)cc1 [Compound 10, (2S,4R)-4-hydroxy-1-((R)-2-(3-(2-(4-(3-(2-hydroxyphenyl)-5-methylthieno[2,3-c]pyridazin-6-yl)piperidin-1-yl)pyridin-4-yl)isoxazol-5-yl)-3-methylbutanoyl)-N-((S)-1-(4-(4-methylthiazol-5-yl)phenyl)ethyl)pyrrolidine-2-carboxamide] | A (“A” indicates maximum degradation ≥75%) | > 10 | > 75 | > 10 |
| Cc1ncsc1-c1ccc([C@H](C)NC(=O)[C@@H]2C[C@@H](O)CN2C(=O)[C@@H](c2cc(-c3cnc(N4CC5(CC(c6sc7nnc(-c8ccccc8O)cc7c6C)C5)C4)nc3)no2)C(C)C)cc1 [Compound 46, (2S,4R)-4-hydroxy-1-((R)-2-(3-(2-(6-(3-(2-hydroxyphenyl)-5-methylthieno[2,3-c]pyridazin-6-yl)-2-azaspiro[3.3]heptan-2-yl)pyrimidin-5-yl)isoxazol-5-yl)-3-methylbutanoyl)-N-((S)-1-(4-(4-methylthiazol-5-yl)phenyl)ethyl)pyrrolidine-2-carboxamide] | A (“A” indicates maximum degradation ≥75%) | < 10 | < 50 | > 1000 |
| Cc1ncsc1-c1ccc([C@H](C)NC(=O)[C@@H]2C[C@@H](O)CN2C(=O)[C@@H](c2cc(-c3cnc(N4CC[C@H](c5sc6nnc(-c7ccccc7O)cc6c5C)C4)nc3)no2)C(C)C)cc1 [Compound 41, (2S,4R)-4-hydroxy-1-((R)-2-(3-(2-((S)-3-(3-(2-hydroxyphenyl)-5-methylthieno[2,3-c]pyridazin-6-yl)pyrrolidin-1-yl)pyrimidin-5-yl)isoxazol-5-yl)-3-methylbutanoyl)-N-((S)-1-(4-(4-methylthiazol-5-yl)phenyl)ethyl)pyrrolidine-2-carboxamide] | A (“A” indicates maximum degradation ≥75%) | < 10 | < 50 | > 1000 |
| Cc1ncsc1-c1ccc([C@H](C)NC(=O)[C@@H]2C[C@@H](O)CN2C(=O)[C@@H](c2cc(-c3cnc(N4CCC(c5cc6nnc(-c7ccccc7O)cc6s5)CC4)nc3)no2)C(C)C)cc1 [Compound 55, (2S,4R)-4-hydroxy-1-((R)-2-(3-(2-(4-(3-(2-hydroxyphenyl)thieno[3,2-c]pyridazin-6-yl)piperidin-1-yl)pyrimidin-5-yl)isoxazol-5-yl)-3-methylbutanoyl)-N-((S)-1-(4-(4-methylthiazol-5-yl)phenyl)ethyl)pyrrolidine-2-carboxamide] | A (“A” indicates maximum degradation ≥75%) | < 10 | < 50 | > 1000 |
| Cc1ncsc1-c1ccc([C@H](C)NC(=O)[C@@H]2C[C@@H](O)CN2C(=O)C(c2cc([C@H]3CC[C@H](c4cnc(N5CCC(c6sc7nnc(-c8ccccc8O)cc7c6C)CC5)nc4)CC3)no2)C(C)C)cc1 (stereo partly drawn) [Compound 64, (2S,4R)-4-hydroxy-1-((R)-2-(3-((1s,4S)-4-(2-(4-(3-(2-hydroxyphenyl)-5-methylthieno[2,3-c]pyridazin-6-yl)piperidin-1-yl)pyrimidin-5-yl)cyclohexyl)isoxazol-5-yl)-3-methylbutanoyl)-N—((S)-1-(4-(4-methylthiazol-5-yl)phenyl)ethyl)pyrrolidine-2-carboxamide] | A (“A” indicates maximum degradation ≥75%) | < 10 | > 75 | > 10 |
| Cc1nc(N2CC[C@H](c3sc4nnc(-c5ccccc5O)cc4c3C)C2)ccc1-c1cc([C@H](C(=O)N2C[C@H](O)C[C@H]2C(=O)N[C@@H](C)c2ccc(-c3scnc3C)cc2)C(C)C)on1 [Compound 95, (2S,4R)-4-hydroxy-1-((R)-2-(3-(6-((S)-3-(3-(2-hydroxyphenyl)-5-methylthieno[2,3-c]pyridazin-6-yl)pyrrolidin-1-yl)-2-methylpyridin-3-yl)isoxazol-5-yl)-3-methylbutanoyl)-N-((S)-1-(4-(4-methylthiazol-5-yl)phenyl)ethyl)pyrrolidine-2-carboxamide] | A (“A” indicates maximum degradation ≥75%) | < 10 | < 50 | – |

— US20250304596A1, “PYRAZINE DERIVATIVES AND USES THEREOF” (FOGHORN THERAPEUTICS INC., priority 2022, published 2025)
